The results in this text go back to patent US12089597B2, “Active ingredient combinations with insecticidal, nematicidal and acaricidal properties” (BAYER AKTIENGESELLSCHAFT, priority 2018, dated 2024).

The subject of test [1] is Meloidogyne incognita. Kind of test: Example A: Meloidogyne incognita test (gall formation on lettuce roots in sand). Particulars: nematicidal action by gall formation, 100% = no galls. The test is classed as in vivo. From the text: (§1) • The expected activity for a given combination of two active ingredients can be calculated as follows, according to S. R. Colby (“Calculating Synergistic and Antagonistic Responses of Herbicide Combinations”, Weeds 15, 20-22, 1967): • If • X is the kill rate, expressed as % of the untreated control, when using active ingredient A at an application rate of m g/ha or in a concentration of m ppm, • Y is the kill rate, expressed as % of the untreated control, when using active ingredient B at an application rate of n g/ha or in a concentration of n ppm and • E is the kill rate, expressed as % of the untreated control, when using active ingredients A and B at application rates of m and n g/ha or in a concentration of m and n ppm, • then
(§2) [formula] • If the actual kill rate is greater than the calculated kill rate (E), the action of the combination is superadditive, i.e. a synergistic effect is present.
(§3) Meloidogyne incognita Test
(§4) • Solvent: 125.0 parts by weight of acetone
(§5) To produce an appropriate active ingredient formulation, 1 part by weight of active ingredient is mixed with the stated amount of solvent and the concentrate is diluted to the desired concentration with water.
(§6) Vessels are filled with sand, active ingredient solution, an egg/larvae suspension of the southern root-knot nematode (Meloidogyne incognita) and lettuce seeds. The lettuce seeds germinate and the plants develop. The galls develop on the roots.
(§7) After the desired period of time, the nematicidal action is determined in % by the gall formation. 100% means that no galls were found; 0% means that the number of galls on the treated plants corresponds to the untreated control. The values ascertained are entered into Colby's formula.

Test [2] deals with Meloidogyne incognita. Briefly: Example B: Meloidogyne incognita test (gall formation on lettuce roots in sand). The test is classed as in vivo. Particulars: nematicidal action by gall formation, 100% = no galls.
Source text: as §1, §2, §3, §4, §5, §6, §7

For the molecule `O=C(Nc1ccn(-c2c(F)cccc2F)n1)c1ccccc1C(F)(F)F` [Compound (B-1)], the “Effect in % after 14 days” value in test [1] (3 ppm) worked out at 0%; in test [1] (6 ppm), 0%; in test [1] (12 ppm), 70%.
As to `Cc1cc(Cl)cc(C)c1C1=C(O)C2(CCC3(CC2)OCCO3)NC1=O` [Compound (I-2)], the “Effect in % after 14 days” value in test [1] (1.2 ppm), in test [1] (2.4 ppm), in test [1] (4.8 ppm), in test [2] (0.4 ppm), in test [2] (0.8 ppm) and in test [2] (1.6 ppm) was 0% in each case.
Consider `c1ccc(-c2noc(-c3cccs3)n2)cc1` [Tioxazafen (B-2), Tioxazafen], for which the “Effect in % after 14 days” value in test [2] (1.6 ppm) worked out at 0%; in test [2] (3.2 ppm) it was 0%; in test [2] (6.4 ppm), 70%.
